Source: patent publication US20150352127A1, “INHALATION PARTICLES COMPRISING A COMBINATION OF AN ANTICHOLINERGIC, A CORTICOSTEROID AND A BETA-ADRENERGIC” (CHIESI FARMACEUTICI S.P.A., priority 2014, published 2015)
Counter-ions that a name gives are not always drawn.

Tests used:
Format in all cases: physicochemical
[1] = Aerosol performances by Next Generation Impactor (NGI) from NEXThaler; settings: formulation of Example 3, NEXThaler, 60 L/min; mean±S.D., n=6
Experimental: Aerosol performances were determined using the Next Generation Impactor (NGI) with a USP induction port and pre-separator containing 15 mL 60:40% v/v MeOH:H2O. […] The aerodynamic particle size distribution was based on 5 actuations from the NEXThaler®, each sampled into 4 liters of air (equivalent to an inhalation time of 4 s). The device was weighed before and after each actuation to determine the shot weight (mg). A minimum of 1 minute was allowed between consecutive actuations to allow static charge to dissipate.
Samples were collected from the NGI using a fixed volume technique. MeOH:H2O (60:40% v/v) was dispensed into the induction port (including mouthpiece); pre-separator; and each stage using an electronic metering dispenser. The induction port (30 mL) and pre-separator (50 mL) were sealed using silicone bungs and shaken by hand for 2 minutes before the samples were collected. The NGI stages (10 mL stages 1-2; 15 mL stage 3-MOC) were rocked using a NGI rocker for 3 minutes. All samples were filtered using a 0.2 μm syringe filter before analysis by UPLC-PDA.

[2] = Uniformity of distribution of the active ingredients in the powder formulation (UPLC-PDA); settings: powder formulation of Example 3; for Content: sampled 10 times
Experimental: About 10 mg of the formulation was weighed directly into a 25 mL volumetric flask. It was sampled 10 times. The flask was made up to volume with 60:40% v/v MeOH:H2O and sonicated for 2 minutes. The samples were analyzed for each active ingredient using UPLC-PDA assay.

[3] = Drug content of the microparticles by UPLC assay; settings: in spray dried microparticles of Example 1; mean±SD, n=5

Structure (SMILES) | DD (delivered dose) [1] [µg] | FPF (fine particle fraction) [1] [%] | FPF < 1 μm (extrafine FPF) [1] [%] | FPF < 2 μm (extrafine FPF) [1] [%] | FPM (fine particle mass, ≤5.0 micron) [1] [µg] | MMAD [1] [μm] | % of Target [2] [%] | Content [2] [μg 10 mg^−1] | Actual concentration [3] [% w/w]
CCC(=O)OCC(=O)[C@@]1(OC(=O)CC)[C@@H](C)C[C@H]2[C@@H]3CCC4=CC(=O)C=C[C@]4(C)[C@@]3(Cl)[C@@H](O)C[C@@]21C [BDP, beclometasone dipropionate] | 87.6 ± 2.2 | 68.5 ± 3.1 | 20.8 ± 0.7 | 38.6 ± 1.2 | 60.0 ± 3.6 | 1.9 ± 0.1 | 98.75 | 98.75 ± 1.23 | 82.0 ± 0.3
C[N+]1(C)CCC(OC(=O)C(O)(c2ccccc2)C2CCCC2)C1 (racemic) [GB, glycopyrronium bromide] | 11.5 ± 0.4 | 68.5 ± 3.7 | 21.7 ± 0.7 | 39.3 ± 1.6 | 7.9 ± 0.5 | 1.9 ± 0.1 | 105.37 | 12.64 ± 0.18 | 10.6 ± 0.1
COc1ccc(CC(C)NCC(O)c2ccc(O)c(NC=O)c2)cc1 (stereo not shown) [FF, formoterol fumarate dihydrate] | 5.2 ± 0.1 | – | – | – | – | – | – | – | –
